We go through 2 molecules from article PMC6947424, “New Targeted Gold Nanorods for the Treatment of Glioblastoma by Photodynamic Therapy” (Journal of Clinical Medicine, 2019).

The structures appear in SMILES notation. Residues, ends and D or L forms follow the SMILES beside them. *: point of attachment. Pyropheophorbide(a) = C=Cc1c(C)c2cc3nc(c4c5[nH]c(cc6nc(cc1[nH]2)C(C)=C6CC)c(C)c5C(=O)C4)[C@@H](CCC(=O)*)[C@@H]3C; Hexanoyl(6-maleimido) = O=C1C=CC(=O)N1CCCCCC(=O)*

The conditions of data set [1]: in methanol; ref [16]; cited from earlier work. The method, then: Fluorescence quantum yields (Φf) were determined using a tetraphenyl porphyrin (TPP) solution as the fluorescence standard (Φf = 0.11 in toluene, taking into account solvent refractive index and absorption efficiencies. For the direct determination of ^1O2 quantum yield (ΦΔ), excitation was performed with a Xe-arc, the light was separated in a SPEX 1680, 0.22 µm double monochromator. Detection at 1270 nm was carried out through a PTI S/N 1565 monochromator and the emission was monitored by a liquid nitrogen cooled Ge-detector (EO-817L, North Coast Scientific Co, OH, USA). Rose Bengal (R ... || These findings are also consistent with the Φf value of Pyro reported by other authors (Φf = 0.3 and in methanol). […] This property can serve in the ...

A further data set deals with U87 glioblastoma cells. Briefly: MTT phototoxicity after light exposure, U87 cells. It counts as cell-based. To be noted: 24 h; for PDT efficacy / photodynamic activity (in words): 10, 20 and 30 µM PS, 652 nm, 10 J/cm2, MTT; for decrease of cell viability: then 652 nm, 10 J/cm2 (4.54 mW·cm−2), MTT after further 24 h, triplicate. The method, then:
For in vitro experiments, U87 glioblastoma cells (ATCC® HTB-14™) were cultivated in Dulbecco’s modified eagle’s medium (DMEM) supplemented with sodium pyruvate 1.5 mM, MEM AA, MEM NE AA, MEM vitamins, L-Ser 14 μg·mL^−1, L-asp 25 μg·mL^−1, L-Glu 2.5 mM, 100 U·mL^−1 penicillin, 100 μg·mL^−1 streptomycin, and 20% FCS. They were cultured under standard cell culture conditions while incubated in 5% CO2/80% humidified air at 37 °C.
Cell survival of U87 after incubation with the hybrid AuNRs, the PS-peptide conjugate or the free PS in the dark (cytotoxicity) or after light exposure (phototoxicity) was investigated using an MTT assay as previously described. Briefly, U87 cells were plated into 48-well plates at an initial cell density of 2 × 10^4 cells/cm^2 in culture medium, incubated at 37 °C during 48 h. Old culture media were discarded and the wells were filled with 250 µL of culture medium containing different concentrations of the tested molecules (AuNRs@PEG-MI-K(Pyro)DKPPR-OH, MI-K(Pyro)DKPPR-OH and Pyro) at a final PS concentration of 10, 20, and 30 μM. After 24 h, the wells were washed three times with HBSS and filled with culture medium. To evaluate the cytotoxicity of the tested molecules towards the U87 cells, one plate was kept incubated in the dark. However, the phototoxicity induced by those molecules was assessed by exposing the cells to light at a fluence of 10 J·cm^−2 (fluence rate 4.54 mW·cm^−2, duration: 36 min 42 s) using a 652 nm diode laser system (Ceralas, Biolytec, Jena, Germany). The cells were further incubated for 24 h. The cell survival was measured by MTT assay where the cells were incubated for 3 h at 37 °C with 0.4 mg·mL^−1. After that, the excess of MTT was discarded and the formazan crystals that developed in the living cells were dissolved by DMSO. The absorption of formazan was measured at 540 nm with a background subtraction at 630 nm using a Multiskan Ascent plate reader (Thermo Scientific, Vantaa, Finland). Experiments were carried out in triplicates.
All in vitro experiments were realized in triplicate and expressed as a percentage of variation from control cells. The results were given as mean ± standard deviation (SD). Differences among groups were evaluated using variance analysis (Anova) followed by Bonferroni test (GraphPad Prism 6.0 software, San Diego, CA, USA). A value of p < 0.05 was considered as statistically significant. * Versus control cells.

For data set [2] the following is noted: tends to aggregate easily; ref [3],[4],[14],[86]; cited from earlier work.
Data set [3] is described as follows: Estimation of PS or peptide loading / molar extinction coefficient. It counts as physicochemical. As to conditions: water, 381 nm, from calibration curve. The method, then: The loading of the PS onto the AuNRs was estimated relying on the molar extinction coefficient (ε) calculated for the MI-K(Pyro)DKPPR-OH conjugate. A calibration curve was developed based on the different concentrations of the conjugate, in water, that correspond to different optical densities (OD). The ε was determined using Beer Lambert’s Law at 381 nm, which constitutes the wavelength of the Soret band of Pyro in water. (3) A = εLC where A, ε, L and C stand for the absorption (OD), molar absorptivity (extinction, L·mol^−1·cm^−1), length (cm) and concentration (mol·L^−1).
The concentration of Pyro in AuNRs@PEG-MI-K(Pyro)DKPPR-OH was calculated for a mass concentration of 1 mg·mL^−1. Moreover, the concentration of the peptide was also determined, as only 1 peptide unit is conjugated to 1 PS molecules. On this basis, the amount of peptide was also estimated to 1 mg·mL^−1 of the functionalized AuNRs.

`C=Cc1c(C)c2cc3nc(c4c5[nH]c(cc6nc(cc1[nH]2)C(C)=C6CC)c(C)c5C(=O)C4)[C@@H](CCC(=O)O)[C@@H]3C` [Pyro, pyropheophorbide-a, reference compound]: the “Φf (fluorescence quantum yield)” value in data set [1] is 0.3. The “PDT efficacy / photodynamic activity (in words)” value with U87 glioblastoma cells is listed as “low PDT efficacy”. Besides, the “solubility in biological media” value in data set [2] is “poorly soluble in biological media”.
Regarding `C=Cc1c(C)c2cc3nc(c4c5[nH]c(cc6nc(cc1[nH]2)C(C)=C6CC)c(C)c5C(=O)C4)[C@@H](CCC(=O)NCCCC[C@H](NC(=O)CCCCCN1C(=O)C=CC1=O)C(=O)N[C@@H](CC(=O)O)C(=O)N[C@@H](CCCCN)C(=O)N1CCC[C@H]1C(=O)N1CCC[C@H]1C(=O)N[C@@H](CCCNC(=N)N)C(=O)O)[C@@H]3C` [MI-K(Pyro)DKPPR-OH] ({Hexanoyl(6-maleimido)}-K(Pyropheophorbide(a))DKPPR-OH), the “molar extinction coefficient (ε)” value in data set [3] is 64012 L/mol/cm. Besides, the “decrease of cell viability” value in the data set on U87 glioblastoma cells (10 µM PS) turned out to be 25%; with U87 glioblastoma cells (20 µM PS) it was 46%; in the data set on U87 glioblastoma cells (30 µM PS) it was 58%. Also, the “PDT efficacy / photodynamic activity (in words)” value with U87 glioblastoma cells is listed as “lower photodynamic activity”.
